# Test system: post-synaptic Dopamine (D.A.) receptors
# Experiment: Inhibition of apomorphine induced climbing in the mouse
# Assay type: in vivo
# Conditions: male CDI mice, p.o., 1/2 hour post dosing, apomorphine 1 mg/kg s.c.; for ED50 (dose for 50% inhibition of apomorphine-induced climbing): 30 min; for ED50: Mus musculus, po, 0.5 h, read-out: ED50 (dose for 50% inhibition of apomorphine-induced climbing)
# Description: Inhibition of apomorphine induced climbing in the mouse
# The test is based on that described by Protais, P., Constantin, J. and Schwartz J. C.
# When mice are given a dose of 1 mg/kg apomorphine and then placed in an enclosed environment, such as an inverted wire cage, they are seen to climb around the walls. This behavioural phenomenon is thought to be a consequence of the stimulation of post-synaptic Dopamine (D.A.) receptors in the nucleus accumbens. Inhibition of apomorphine induced climbing is therefore indicative of post-synaptic D.A. receptor blockade in the accumbens.
# Groups of 10 male CDI mice, weighing 25-30 g were pretreated orally with either graded doses of the test compound or vehicle, at appropriate time intervals before the subcutaneous administration of a sub-maximal dose of apomorphine (1 mg/kg). Immediately after the apomorphine injection the mice were placed in wire `climbing cages` and each animal was scored for climbing behavour at 10 and 20 minutes post apomorphine as follows:
# Four paws on cage floor=0
# The total score was calculated for each group of mice and expressed as a percentage inhibition of climbing.
# Total score for apomorphine control
Compound,ED50 (dose for 50% inhibition of apomorphine-induced climbing) [mg/kg p.o.],ED50 [mg/kg]
"COc1cc(N)c(Cl)cc1C(=O)NC1CCN2CC(C)(c3ccccc3)CCC12 (racemic) [2 (c), (±) 4-Amino-5-chloro-2-methoxy-N-[7'β-[3'-methyl-3'-phenyl-1'-aza-5'αH-bicyclo[4,3,0]nonyl)]benzamide]",0.48,
"COc1cc(N)c(Cl)cc1C(=O)N[C@H]1CCN2C[C@@H](c3ccc(F)cc3)C[C@H]2C1 (relative stereo) [2 (b), (±) 4-Amino-5-chloro-2-methoxy-N-[7'β-(3'β-p-fluorophenyl-1'-aza-5'αH-bicyclo[4,3,0]nonyl)]benzamide]",,0.195
"(±) 4-Amino-5-chloro-2-methoxy-N-(7'β-[3'-o-fluorophenyl-1'-aza-5'αH-bicyclo[4,3,0]nonyl)]benzamide [2 (d)]",0.52,
"COc1cc(N)c(Cl)cc1C(=O)N[C@H]1CCN2C[C@@H](c3ccccc3)C[C@H]2C1 (relative stereo) [2 (a), (±) 4-Amino-5-chloro-2-methoxy-N-[7'β-(3'β-phenyl-1'-aza-5'αH-bicyclo[4,3,0]nonyl)]benzamide]",,0.235

# Reference: patent US4559346A, “Certain N-octahydro-indolizinebenzamides and their use in treating psychosis, cardiac arrhythmia and hypertension” (Beecham Group p.l.c., priority 1982, dated 1985)
